Source: patent publication US11052101B2, “Methods for treating cancer using purine analogs by depleting intracellular ATP” (National Guard Health Affairs, priority 2019, dated 2021)
Entries after “also recorded” stand apart in the source; their conditions may differ.

Legend:
primary CLL cells [1] = assay: Western blotting / immunoblotting of apoptosis markers (cleaved PARP, caspases); type: cell-based, human; settings: for cleaved PARP (apoptosis marker), western blot: 3 uM isoproterenol, 24 hr, IBMX positive control; for apoptosis by immunoblotting with apoptotic markers: 30 uM isoproterenol 12 hrs pre-treatment, 10 uM fludarabine 48 hr
Procedure: Cell death markers for apoptosis (cleaved PARP, cleaved caspase 3 and caspase 9) and autophagy (accumulation of LC3 II) were assessed by western blotting.
[…] Cells were then harvested and examined by immunoblotting with apoptotic markers Cleaved PARP and caspace 9.
Control primary CLL cells ([…]), 10 uM fludarabine (Flud), a combination of both drugs at these concentrations (Flud/Iso), 0.5 uM doxorubicin (Dodo), a combination of 0.5 uM doxorubicin and 30 uM isoproterenol (Dodo/Iso), 0.5 uM mitoxantrone, and a combination of 0.5 uM mitoxantrone and 30 uM isoproterenol and incubated. Cells were than harvested and examined by immunoblotting with the indicated apoptotic markers.

primary CLL cells [2] = assay: CellTiter-Glo ATP-based luminescent assay, intracellular ATP depletion; type: cell-based, human; settings: for intracellular ATP depletion (luminescence), dose-response: gradient of concentrations, 1 to 20 μM
Procedure: Primary CLL cells were treated with 3 uM isoproterenol (IC50 determined with Cell-titer Glo® assay) for 24 hr. Cell death markers for apoptosis (cleaved PARP, cleaved caspase 3 and caspase 9) and autophagy (accumulation of LC3 II) were assessed by western blotting. The […] phosphodiesterase inhibitor, IBMX, was used as a positive control because it induces apoptosis in CLL B cells.
CellTiter-Glo® Luminescent Cell Viability Assay is a homogeneous method for determining the number of viable cells in culture based on quantitation of the ATP present, an indicator of metabolically active cells.
ATP depletion in CLL cells was measured by the ATP-based luminescent assay CellTiter-Glo®.
Isoproterenol-induced intercellular ATP depletion was determined by the ATP-based luminescent assay CellTiter-Glo®. The efficiency of isoproterenol in depleting intracellular ATP is represented by the dose response curves shown by FIGS. 3B, 3D and 3F respectively.

primary CLL cells [3] = type: cell-based
Procedure: (§1) To assess viability of the treated cells, cells were stained by propidium iodide and analyzed by flow cytometry.
(§2) The PI/flow cytometry assay assesses cell viability using propidium iodide (PI) which is a membrane impermanent dye that is generally excluded from viable cells. It binds to double stranded DNA by intercalating between base pairs.
Primary CLL cells were isolated from three CLL patients and were exposed 10 uM fludarabine (a purine analog) alone or in combination with 30 uM isoproterenol to assess the effects of the drug(s) on cytotoxicity and growth. Induced cell death was assessed by PI staining and flow cytometry.
After 24 hours treatment, the treated cells were stained with the cell-death marker, propidium iodide and analyzed with flow-cytometry to determine % induced cell death.

normal PBMCs = assay: Induced cell death by propidium iodide staining and flow cytometry; type: cell-based, human; settings: 3 uM
Procedure: as §1, §2
Cells from CLL, AML, and from normal donors were treated with 30 μM isoproterenol, 10 μM fludarabine, or a mixture of both drugs at these concentrations as shown by FIGS. 3A, 3C and 3E respectively.

CLL primary cells = assay: MTT (ATP independent) cell viability assay; type: cell-based, human; settings: gradient of concentrations
Excerpt: The two assays gave completely different dose-response curves.

primary CLL cells [4] = assay: Isoproterenol-induced intracellular cAMP accumulation; type: cell-based, human; settings: IBMX pre-treatment one hour, then 10 uM for 24 hr; CLL cells compared to normal cells
Procedure: Isoproterenol-induced intracellular cAMP accumulation in normal PBMCs and primary CLL cells was assessed. Cell samples were pre-treated for one hour with phosphodiesterase inhibitor (IBMX) and then with 10 uM isoproterenol for 24 hr.

p-CREB = assay: Human phosphokinase array; type: cell-based; settings: 20 μM for 24 hours, compared to untreated
Procedure: Samples of primary CLL cells were treated in vitro with 20 μM isoproterenol for 24 hours in a human phosphokinase array. In the array each kinase was spotted in duplicate with hybridization signals at the corners serving as controls. Relative levels of protein phosphorylation (normalized intensity for each antibody) were calculated for each untreated and treated sample.

phosphorylation of p-CREB (p-CREB)	Structure (SMILES)	cleaved PARP (apoptosis marker), western blot (primary CLL cells [1])	apoptosis by immunoblotting with apoptotic markers (primary CLL cells [1])	apoptosis, cleaved PARP (relative pixel density) (primary CLL cells [1]; 30 uM isoproterenol, 10 uM fludarabine)	intracellular ATP depletion (primary CLL cells [2]; 1 μM)	depletion of intracellular ATP (primary CLL cells [2]; 30 μM for 12 hours)	sensitivity to isoproterenol induced intracellular ATP depletion (primary CLL cells [2]; CLL primary cells compared with other leukemia subtypes and normal PBMCs)	IC50 (primary CLL cells [2]; Homo sapiens, CLL cell, primary CLL cells, read-out: IC50 determined with Cell-titer Glo assay) [nM]	intracellular ATP depletion (luminescence), dose-response (primary CLL cells [2])	intracellular ATP depletion (luminescence), dose-response (primary CLL cells [2]; listed as Iso)	sensitivity to isoproterenol (ATP depletion) (primary CLL cells [2]; primary CLL cells from a CLL patient at early stage)	cell death, PI staining / flow cytometry (primary CLL cells [3]; 3 uM)	cell death, ATP-independent assay (solid line FIG. 1C) (primary CLL cells [3]; 1 to 20 μM)	cell death, PI staining / flow cytometry (normal PBMCs)	cell death by MTT assay (CLL primary cells)	intracellular cAMP accumulation (primary CLL cells [4])	p53 expression (P53)
–	CC(C)Cn1c(=O)n(C)c(=O)c2[nH]cnc21 [IBMX]	presence of cleaved PARP	–	–	–	–	–	–	–	–	–	–	–	–	–	–	–
–	Nc1nc(F)nc2c1ncn2[C@@H]1O[C@H](CO)[C@@H](O)[C@@H]1O [fludarabine, Fludarabine]	–	Apoptosis was observed	induced apoptosis	–	–	–	–	–	–	–	–	–	–	–	–	–
only significantly up-regulated kinase	CC(C)NCC(O)c1ccc(O)c(O)c1 (stereo not shown) [isoproterenol, Isoproterenol]	no cleaved PARP	Apoptosis was not observed	–	weak intracellular ATP depletion	more than 80%	highest sensitivity	3000	increased intracellular ATP depletion; also recorded: dose-dependent decrease in luminescence	induces intracellular ATP depletion	lesser sensitivity	did not induce any significant cell death	did not induce cell death	did not induce any significant cell death	doesn't induce cell death	significantly higher accumulation of cAMP	doesn't induce any increase in p53 expression
